Measured values taken from patent publication US9867805B2, “Gelatinase inhibitors and prodrugs” (priority 2010, dated 2018).
≈ marks a conversion by molar mass, not a printed value. Structures can show the parent of a compound that is named as a salt. Where two headings read alike, the source gives them in different places.

How the values were obtained:
[1] = Half-life in rat liver microsomes
[2] = Half-life in mouse liver microsomes
[3] = Half-life in human liver microsomes
[4] = target: T1, human MMP-2 (Homo sapiens, UniProt P08253); conditions: read-out: Ki, MMP-2
T1 sequence (P08253 110-660): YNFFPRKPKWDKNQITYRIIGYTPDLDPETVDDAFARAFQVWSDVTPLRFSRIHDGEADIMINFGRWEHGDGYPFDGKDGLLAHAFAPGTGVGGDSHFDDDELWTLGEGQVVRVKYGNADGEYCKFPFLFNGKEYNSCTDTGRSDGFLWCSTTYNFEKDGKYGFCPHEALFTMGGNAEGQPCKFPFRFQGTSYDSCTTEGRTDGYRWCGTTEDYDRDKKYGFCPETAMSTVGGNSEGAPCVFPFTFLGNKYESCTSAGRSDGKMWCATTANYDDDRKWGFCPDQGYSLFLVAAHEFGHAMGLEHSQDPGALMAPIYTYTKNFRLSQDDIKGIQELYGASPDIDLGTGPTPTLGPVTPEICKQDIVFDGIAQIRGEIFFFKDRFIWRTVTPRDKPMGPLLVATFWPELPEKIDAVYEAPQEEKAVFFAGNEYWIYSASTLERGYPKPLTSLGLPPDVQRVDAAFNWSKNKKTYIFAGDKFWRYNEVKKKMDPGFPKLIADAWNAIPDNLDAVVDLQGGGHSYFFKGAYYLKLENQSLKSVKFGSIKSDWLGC

[5] = target: T2, human MMP-9 (Homo sapiens, UniProt P14780); conditions: read-out: Ki, MMP-9
T2 sequence (P14780 107-707 limits assumed): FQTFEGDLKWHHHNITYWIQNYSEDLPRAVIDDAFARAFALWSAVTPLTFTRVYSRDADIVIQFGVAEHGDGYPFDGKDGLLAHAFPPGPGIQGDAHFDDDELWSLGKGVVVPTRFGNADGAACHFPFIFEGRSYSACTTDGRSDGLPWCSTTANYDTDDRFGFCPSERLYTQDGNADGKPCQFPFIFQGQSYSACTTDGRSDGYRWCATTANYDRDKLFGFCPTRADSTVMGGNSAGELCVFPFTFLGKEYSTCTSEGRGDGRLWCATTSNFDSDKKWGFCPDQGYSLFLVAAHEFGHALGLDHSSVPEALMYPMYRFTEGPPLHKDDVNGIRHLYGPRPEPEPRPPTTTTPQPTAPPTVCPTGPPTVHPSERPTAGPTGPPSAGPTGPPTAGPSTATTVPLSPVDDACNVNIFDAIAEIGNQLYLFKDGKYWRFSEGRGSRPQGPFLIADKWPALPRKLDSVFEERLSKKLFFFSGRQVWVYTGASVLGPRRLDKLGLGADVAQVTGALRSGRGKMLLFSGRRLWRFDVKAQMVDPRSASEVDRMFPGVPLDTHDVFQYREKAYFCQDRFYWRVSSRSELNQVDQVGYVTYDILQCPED

[6] = target: T1, human MMP-2; test: biochemical; conditions: for koff: read-out: koff, MMP-2; for kon: read-out: kon, MMP-2
[7] = target: T2, human MMP-9; test: biochemical; conditions: for koff: read-out: koff, MMP-9; for kon: read-out: kon, MMP-9
[8] = Half-life in human blood at 37° C.; conditions: for half-life: human, blood
[9] = Half-life in human plasma at 37° C.; conditions: for half-life: human, plasma
[10] = Water solubility
[11] = tested on: Ames II mixed strains and strain TA98; test: Ames mutagenicity assay (reverse mutations); conditions: with and without rat liver S9 metabolic activation; six concentrations up to 1 mg/mL
[12] = target: T3, MMP-7 (Homo sapiens, UniProt P09237); conditions: read-out: Ki, MMP-7
T3 sequence (P09237 95-267): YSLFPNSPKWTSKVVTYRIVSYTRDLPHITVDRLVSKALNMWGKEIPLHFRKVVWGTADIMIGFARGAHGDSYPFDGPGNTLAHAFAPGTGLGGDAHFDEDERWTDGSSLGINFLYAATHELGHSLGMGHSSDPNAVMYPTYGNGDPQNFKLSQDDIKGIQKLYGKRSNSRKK

[13] = target: T4, MMP-14 (Homo sapiens, UniProt P50281); conditions: read-out: Ki, MMP-14
[14] = target: T5, MMP-1 (Homo sapiens, UniProt P03956); test: biochemical; conditions: read-out: inhibition of MMP-1
T5 sequence (P03956 100-469): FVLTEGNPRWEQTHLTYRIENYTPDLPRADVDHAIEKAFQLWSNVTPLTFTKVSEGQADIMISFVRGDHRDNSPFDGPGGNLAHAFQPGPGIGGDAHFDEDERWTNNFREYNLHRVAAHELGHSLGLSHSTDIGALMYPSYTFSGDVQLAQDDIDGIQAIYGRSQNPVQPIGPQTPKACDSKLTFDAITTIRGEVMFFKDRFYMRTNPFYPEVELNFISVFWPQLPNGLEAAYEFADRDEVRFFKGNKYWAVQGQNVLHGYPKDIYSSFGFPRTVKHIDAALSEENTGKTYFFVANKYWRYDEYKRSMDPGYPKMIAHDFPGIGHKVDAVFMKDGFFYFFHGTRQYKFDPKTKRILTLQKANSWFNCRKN

[15] = target: MMP-3 (Homo sapiens, UniProt P08254); test: biochemical; conditions: read-out: inhibition of MMP-3
Chain of MMP-3 (P08254 100-477): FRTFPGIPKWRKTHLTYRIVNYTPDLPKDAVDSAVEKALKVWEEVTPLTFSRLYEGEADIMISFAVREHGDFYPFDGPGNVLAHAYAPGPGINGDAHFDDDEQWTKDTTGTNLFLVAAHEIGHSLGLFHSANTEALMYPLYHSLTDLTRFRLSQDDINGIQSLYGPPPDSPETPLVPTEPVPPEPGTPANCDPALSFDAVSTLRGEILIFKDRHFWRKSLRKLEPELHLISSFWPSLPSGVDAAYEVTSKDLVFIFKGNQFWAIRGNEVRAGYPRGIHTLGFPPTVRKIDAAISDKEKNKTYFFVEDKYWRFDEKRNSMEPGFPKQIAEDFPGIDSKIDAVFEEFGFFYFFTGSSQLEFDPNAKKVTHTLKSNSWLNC

[16] = target: T4, MMP-14; test: biochemical
[17] = cited from earlier work
[18] = mice; cited from earlier work
[19] = rat; cited from earlier work
[20] = target: other MMPs; conditions: background, earlier reports; cited from earlier work
[21] = target: T1, human MMP-2; conditions: read-out: Ki for human MMP-2; background, earlier reports; cited from earlier work
[22] = target: T2, human MMP-9; conditions: read-out: Ki for human MMP-9; background, earlier reports; cited from earlier work

## Nc1ccc(Oc2ccc(S(=O)(=O)CC3CS3)cc2)cc1 (stereo not shown) [Compound 6, 4-[4-((Thiiran-2-yl)methylsulfonyl)phenoxy]benzamine.HCl salt]
[1]
  Half-life in liver microsomes, Rat: 23.4 ± 0.7 min
[2]
  Half-life in liver microsomes, Mouse: 27.3 ± 2.1 min
[3]
  Half-life in liver microsomes, Human: >60 min

## NCC(=O)Nc1ccc(Oc2ccc(S(=O)(=O)CC3CS3)cc2)cc1 (stereo not shown) [Compound 11a]
[4]
  Ki: 440 ± 50 nM
[5]
  Ki: 3100 ± 300 nM
[6]
  koff: 0.00082 ± 9e-05 s⁻¹
  kon: 1900 ± 600 M⁻¹ s⁻¹
[7]
  koff: 0.00065 ± 6e-05 s⁻¹
  kon: 210 ± 40 M⁻¹ s⁻¹
[8]; human blood, 37° C.
  Half-life in human blood at 37° C.: 27.1 ± 2.5 min
[9]; human plasma, 37° C.
  Half-life in human plasma at 37° C.: 32.4 ± 2.7 min

## NCCCCC(N)C(=O)Nc1ccc(Oc2ccc(S(=O)(=O)CC3CS3)cc2)cc1 (stereo not shown) [Compound 11b]
[6]
  koff: 0.00021 ± 9e-05 s⁻¹
  kon: 3400 ± 100 M⁻¹ s⁻¹
[7]
  koff: 0.00042 ± 7e-05 s⁻¹
  kon: 270 ± 40 M⁻¹ s⁻¹
[10]; water, Water Solubility
  solubility: > 10000 µg/mL
[8]
  half-life: 15.3 ± 1.9 min
[9]
  half-life: 25.1 ± 5.2 min

## NC(CCC(=O)O)C(=O)Nc1ccc(Oc2ccc(S(=O)(=O)CC3CS3)cc2)cc1 (stereo not shown) [Compound 11c]
[6]
  koff: 0.00018 ± 0.00016 s⁻¹
  kon: 2500 ± 100 M⁻¹ s⁻¹
[7]
  Ki: 5.4 ± 0.3 µM
  koff: 0.0012 ± 7e-05 s⁻¹
  kon: 2300 ± 100 M⁻¹ s⁻¹
[10]; water, Water Solubility
  solubility: > 10000 µg/mL
[8]
  half-life: 27.9 ± 3.8 min
[9]
  half-life: 32.8 ± 3.6 min

## N=C(N)NCCCC(N)C(=O)Nc1ccc(Oc2ccc(S(=O)(=O)CC3CS3)cc2)cc1 (stereo not shown) [Compound 11d]
[10]; water, Water Solubility
  solubility: > 10000 µg/mL
[1]
  half-life: 59.3 ± 4.5 min
[8]
  half-life: 25.4 ± 0.1 min
[9]
  half-life: 29.5 ± 0.7 min
[2]
  half-life: > 60 min
[3]
  half-life: > 60 min
[11]
  mutagenic potential (Ames mutagenicity assay): negative

## N=C(N)NCCCC(N)C(=O)NC(CCCNC(=N)N)C(=O)Nc1ccc(Oc2ccc(S(=O)(=O)CC3CS3)cc2)cc1 (stereo not shown) [Compound 11e]
[10]; water, Water Solubility
  solubility: > 10000 µg/mL
[8]
  half-life: 5.9 ± 0.6 min
[9]
  half-life: 11.8 ± 0.5 min

## Cc1oc(=O)oc1COC(=O)Nc1ccc(Oc2ccc(S(=O)(=O)CC3CS3)cc2)cc1 (stereo not shown) [Compound 14]
[6]
  Ki: 2400 ± 600 nM
[7]; read-out: inhibition of MMP-9
  inhibition at 80 µM: 37%
[10]; Water Solubility, in 100% water, solubility calculated using ε of MIK-G6 (p-N-acetyl SB-3CT)
  solubility: 1.01 µg/mL (≈ 0.00212 mM)
[9]
  half-life: 1.6 ± 0.4 min

## Nc1ccc(Oc2ccc(S(=O)(=O)CC3CS3)cc2)cc1O (stereo not shown) [Compound 22, 2-Amino-5-(4-((thiiran-2-ylmethyl)sulfonyl)phenoxy)phenol]
[4]
  Ki: 78 ± 43 nM
[5]
  Ki: 490 ± 110 nM
[12]
  Ki: 116 ± 13 µM
[13]
  Ki: 260 ± 70 nM
[6]
  koff: 0.00014 ± 7e-05 s⁻¹
  kon: 1700 ± 100 M⁻¹ s⁻¹
[7]
  koff: 0.00053 ± 0.0001 s⁻¹
  kon: 1070 ± 120 M⁻¹ s⁻¹
[14]
  inhibition at 300 µM: 11%
[15]
  inhibition at 300 µM: 54%
[16]; read-out: koff, MMP-14
  koff: 0.000702 ± 0.000161 s⁻¹
[16]; read-out: kon, MMP-14
  kon: 2690 ± 270 M⁻¹ s⁻¹

## O=S(=O)(CC1CS1)c1ccc(Oc2ccccc2)cc1 (stereo not shown) [SB-3CT]
[17]; administration at 6 hours after ischemia
  histological damage: potently blocked
[17]; mouse transient ischemia
  infarct volume: 30 % of control
  neurobehavioral scores: significantly improved
[18]
  treatment of viral-induced vascular leakage: effective
[19]
  treatment in model of subarachnoid hemorrhage: effective
[20]
  Ki values for other MMPs: in the μM range at best
[10]; water, aqueous solubility
  solubility: ~2.45 µg/mL (≈ 0.008 mM)

## O=S(=O)(CC1CS1)c1ccc(Oc2ccc(O)cc2)cc1 (stereo not shown) [p-hydroxylated metabolite]
[21]
  Ki: 6 ± 3 nM
[22]
  Ki: 160 ± 80 nM
